The assay concerns murine sperm. Briefly: chlortetracycline assay for capacitation of murine sperm in vitro. Type of assay: cell-based. The text has this:
ABCA1 generates HDL by transferring cholesterol onto apoprotein-A1 (apoA1) in a process known as cholesterol efflux, which is also an essential component of male fertility. Sperm are made in the testes and released into the epididymis, where they await ejaculation into the female reproductive tract. Although differentiated, epididymal sperm are not capable of fertilization and must first complete their maturation in the female reproductive tract. This maturation process is known as capacitation and is known to require efflux of cholesterol from the sperm plasma membrane. How this occurs at the molecular level is not well understood. The present invention relies in part on the discovery that ABCA1 is highly expressed in the testes (being present in Sertoli and Leydig cells as well as in differentiating spermatids). […] In accordance with the present invention, ABCA1 is also present in epididymal sperm where it can act to transport cholesterol during capacitation. In vivo, follicular HDL is an endogenous cholesterol acceptor for capacitating sperm, and HDL can stimulate capacitation in vitro. In accordance with the present invention, because cholesterol efflux through ABCA1 is dependent upon apoA1 the ability of apoA1 to stimulate capacitation of murine sperm in vitro was tested using a chlortetracycline assay.

This is an account of results in patent publication US20050019765A1, “Methods for treating disorders of the nervous and reproductive systems” (priority 2001, published 2005).

With “de-lipidated apoA1: apoprotein-A1, the acceptor onto which ABCA1 transfers cholesterol in cholesterol efflux”, the “ability to stimulate capacitation of murine sperm” value is given as “capacitates sperm in a dose-dependent manner”.
